Measured values from ChEMBL document CHEMBL6177931, “Exploring diverse frontiers: Advancements of bioactive 4-aminoquinoline-based molecular hybrids in targeted therapeutics and beyond” (Eur J Med Chem, 2024).
In brackets after ≈: the same amount, converted by molar mass.

Key:
Cholinesterase [1] = biological target: T1, Cholinesterase (Homo sapiens, UniProt P06276); assay: Inhibition of human BchE by Ellman's reagent based spectrophotometric analysis
Acetylcholinesterase [2] = biological target: T2, Acetylcholinesterase (Homo sapiens, UniProt P22303); assay: Inhibition of recombinant human AchE by Ellman's reagent based spectrophotometric analysis
T2 sequence (P22303 whole entry): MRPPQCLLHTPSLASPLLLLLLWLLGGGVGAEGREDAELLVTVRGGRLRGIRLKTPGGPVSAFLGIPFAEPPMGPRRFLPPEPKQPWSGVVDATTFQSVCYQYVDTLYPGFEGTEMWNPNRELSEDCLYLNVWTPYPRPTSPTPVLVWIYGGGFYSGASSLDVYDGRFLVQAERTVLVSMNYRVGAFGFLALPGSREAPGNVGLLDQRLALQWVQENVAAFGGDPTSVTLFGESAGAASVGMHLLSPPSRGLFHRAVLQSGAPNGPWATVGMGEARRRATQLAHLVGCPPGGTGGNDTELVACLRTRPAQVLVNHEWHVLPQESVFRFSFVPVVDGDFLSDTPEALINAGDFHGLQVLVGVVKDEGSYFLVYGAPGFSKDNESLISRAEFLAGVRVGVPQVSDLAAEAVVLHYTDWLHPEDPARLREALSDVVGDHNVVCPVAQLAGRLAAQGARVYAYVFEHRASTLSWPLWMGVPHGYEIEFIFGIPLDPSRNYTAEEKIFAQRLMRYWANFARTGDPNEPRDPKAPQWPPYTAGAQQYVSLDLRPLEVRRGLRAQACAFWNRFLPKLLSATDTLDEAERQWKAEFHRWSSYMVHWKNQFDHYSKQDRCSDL

[3] = Antiproliferative activity against human Caco-2 cells assessed as cell growth inhibition incubated for 72 hrs by MTT assay; format: toxicity, cell-based
[4] = Cytotoxicity against MDCK cells assessed as cell growth inhibition incubated for 72 hrs by MTT assay; format: toxicity, cell-based, Canis lupus familiaris; conditions: dog
[5] = Selectivity index, ratio of IC50 for cytotoxicity against African green monkey Vero cells to IC50 for antiplasmodial activity against D-sorbitol synchronized chloroquine-resistant Plasmodium falciparum W2; format: toxicity, cell-based; conditions: read-out: Ratio IC50
[6] = system: Mycobacterium tuberculosis; assay: Antitubercular activity against Mycobacterium tuberculosis H37Rv; format: functional
[7] = system: Mycobacterium tuberculosis; assay: Antitubercular activity against Mycobacterium tuberculosis H37Rv assessed as inhibition of bacterial growth at 250 microg/ml relative to control; format: functional
Cholinesterase [8] = biological target: T3, Cholinesterase (Equus caballus, UniProt P81908); assay: Inhibition of equine serum BChE using […] as substrate preincubated for 10 mins followed by substrate addition and measured after 5 mins by Ellman's reagent based spectrophotometric analysis
T3 sequence (P81908 whole entry): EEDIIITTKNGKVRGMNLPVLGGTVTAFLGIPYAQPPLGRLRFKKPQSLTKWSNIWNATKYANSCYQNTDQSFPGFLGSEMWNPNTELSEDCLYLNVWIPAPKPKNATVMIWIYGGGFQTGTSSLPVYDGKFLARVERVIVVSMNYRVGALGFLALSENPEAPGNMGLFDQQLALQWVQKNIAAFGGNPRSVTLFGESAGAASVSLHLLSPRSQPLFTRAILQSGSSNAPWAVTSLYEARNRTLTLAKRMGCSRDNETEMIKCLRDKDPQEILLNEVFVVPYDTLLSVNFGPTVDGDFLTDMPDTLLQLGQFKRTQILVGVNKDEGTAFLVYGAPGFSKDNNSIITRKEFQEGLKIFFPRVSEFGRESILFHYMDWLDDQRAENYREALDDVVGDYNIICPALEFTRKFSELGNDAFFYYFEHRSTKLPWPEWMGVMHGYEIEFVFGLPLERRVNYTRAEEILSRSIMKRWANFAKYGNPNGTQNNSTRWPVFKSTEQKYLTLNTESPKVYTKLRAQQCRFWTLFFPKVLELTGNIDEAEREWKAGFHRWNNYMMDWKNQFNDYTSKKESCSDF

Acetylcholinesterase [9] = biological target: T4, Acetylcholinesterase (Electrophorus electricus, UniProt O42275); assay: Inhibition of electric eel AChE using […] as substrate preincubated for 10 mins followed by substrate addition and measured after 5 mins by Ellman's reagent based spectrophotometric analysis
T4 sequence (O42275 whole entry): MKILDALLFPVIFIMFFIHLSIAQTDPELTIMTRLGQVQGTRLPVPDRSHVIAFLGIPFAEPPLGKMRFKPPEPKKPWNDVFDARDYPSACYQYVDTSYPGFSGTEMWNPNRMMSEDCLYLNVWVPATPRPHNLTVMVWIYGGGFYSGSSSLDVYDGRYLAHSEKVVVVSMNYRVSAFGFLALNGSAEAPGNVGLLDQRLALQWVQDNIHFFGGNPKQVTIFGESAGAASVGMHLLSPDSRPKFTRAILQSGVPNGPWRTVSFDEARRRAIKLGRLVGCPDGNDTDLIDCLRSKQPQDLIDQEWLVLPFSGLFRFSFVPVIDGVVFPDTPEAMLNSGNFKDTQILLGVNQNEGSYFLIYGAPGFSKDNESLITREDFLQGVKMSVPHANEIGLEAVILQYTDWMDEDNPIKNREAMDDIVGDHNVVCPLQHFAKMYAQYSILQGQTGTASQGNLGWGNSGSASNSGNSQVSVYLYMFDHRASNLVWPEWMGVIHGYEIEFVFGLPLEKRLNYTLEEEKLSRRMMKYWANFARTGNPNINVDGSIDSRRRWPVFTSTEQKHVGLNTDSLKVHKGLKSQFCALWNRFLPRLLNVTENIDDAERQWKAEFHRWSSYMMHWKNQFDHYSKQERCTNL

Cholinesterase [10] = biological target: T1, Cholinesterase; assay: Inhibition of human BChE
Acetylcholinesterase [11] = biological target: T2, Acetylcholinesterase; assay: Inhibition of human AChE
Jurkat E6.1 = assay: Cytotoxicity against human Jurkat E6.1 cells assessed as reduction in cell viability incubated for 24 hrs by MTT assay; format: functional, cell-based; conditions: Jurkat E6.1, 24 h
HL-60 = assay: Cytotoxicity against human HL-60 cells assessed as reduction in cell viability incubated for 24 hrs by MTT assay; format: functional, cell-based; conditions: HL-60, 24 h
[12] = Cytotoxicity against human A375P cells assessed as cell viability incubated for 72 hrs by alamar blue reagent based assay; format: functional
Acetylcholinesterase [13] = biological target: T2, Acetylcholinesterase; assay: Inhibition of human erythrocyte AChE using acetylthiocholine as substrate preincubated for 5 mins followed by substrate addition by Ellman's reagent based spectrophotometric analysis
SMMC-7721 = assay: Antiproliferative activity against human SMMC-7721 cells assessed as reduction in cell proliferation incubated for 24 hrs by MTT assay; format: functional, cell-based; conditions: SMMC-7721, 24 h
HepG2 = assay: Antiproliferative activity against human HepG2 cells assessed as reduction in cell proliferation incubated for 24 hrs by MTT assay; format: functional, cell-based; conditions: HepG2, 24 h
Cholinesterase [14] = biological target: T3, Cholinesterase; assay: Inhibition of equine serum BChE using […] as substrate measured within 2 mins
Acetylcholinesterase [15] = biological target: T4, Acetylcholinesterase; assay: Inhibition of electric eel AChE using […] as substrate measured within 2 mins
Bacillus subtilis = assay: Antibacterial activity against Bacillus subtilis MTCC 619 by agar streak dilution method; format: functional
Staphylococcus aureus = assay: Antibacterial activity against Staphylococcus aureus MTCC 96 by agar streak dilution method; format: functional
Escherichia coli = assay: Antibacterial activity against Escherichia coli MTCC 739 by agar streak dilution method; format: functional
Pseudomonas aeruginosa = assay: Antibacterial activity against Pseudomonas aeruginosa MTCC 741 by agar streak dilution method; format: functional
[16] = Cytotoxicity against human Huh-7 cells assessed as reduction in cell viability incubated for 2 days by MTT assay; format: toxicity, cell-based; conditions: time 2 day
[17] = Inhibition of ConA-induced IL-1beta secretion in female BALB/c mouse splenocyte incubated for 48 hrs by ELISA; format: functional, cell-based
[18] = Inhibition of ConA-induced IL-6 secretion in female BALB/c mouse splenocyte incubated for 48 hrs by ELISA; format: functional, cell-based
[19] = Inhibition of ConA-induced TNF-alpha secretion in female BALB/c mouse splenocyte incubated for 48 hrs by ELISA; format: functional, cell-based
A549 = assay: Antiproliferative activity against human A549 cells; format: functional, cell-based
MCF7 = assay: Antiproliferative activity against human MCF7 cells; format: functional, cell-based
[20] = system: Mycobacterium tuberculosis; assay: Antitubercular activity against Mycobacterium tuberculosis H37Rv by microplate alamar blue assay; format: functional

T1 sequence (P06276 whole entry): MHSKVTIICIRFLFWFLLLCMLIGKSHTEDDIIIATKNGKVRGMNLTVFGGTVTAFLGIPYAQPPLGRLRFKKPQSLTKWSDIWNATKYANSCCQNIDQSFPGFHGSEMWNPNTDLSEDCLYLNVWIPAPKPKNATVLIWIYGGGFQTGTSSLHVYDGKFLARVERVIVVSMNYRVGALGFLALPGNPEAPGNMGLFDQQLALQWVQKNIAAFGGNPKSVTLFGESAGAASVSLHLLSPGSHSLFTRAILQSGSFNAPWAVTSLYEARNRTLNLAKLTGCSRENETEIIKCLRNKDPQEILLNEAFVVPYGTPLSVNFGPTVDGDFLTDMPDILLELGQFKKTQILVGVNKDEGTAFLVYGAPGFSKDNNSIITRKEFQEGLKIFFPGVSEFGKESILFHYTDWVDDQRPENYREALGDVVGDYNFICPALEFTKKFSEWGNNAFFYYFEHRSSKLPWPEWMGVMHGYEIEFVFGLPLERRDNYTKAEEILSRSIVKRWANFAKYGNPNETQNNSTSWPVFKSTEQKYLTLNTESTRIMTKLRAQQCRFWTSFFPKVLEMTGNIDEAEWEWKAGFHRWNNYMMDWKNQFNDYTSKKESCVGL

For Clc1ccc2c(NCCNC34CC5CC(CC(C5)C3)C4)ccnc2c1, the Ki (Cholinesterase [1]) was 920 nM and the Ki (Acetylcholinesterase [2]) was 1600 nM.
O=C(NCCNc1ccnc2cc(Cl)ccc12)c1ccc(-c2nc3ccccc3[nH]2)cc1 gave a GI50 at 72 h [3] of 16400 nM and an IC50 at 72 h [4] of 100000 nM.
Work on O=C1c2ccc(N3CCN(CCO)CC3)cc2C(=O)N1CCCNc1ccnc2cc(Cl)ccc12 yielded a selectivity ratio [5] of over 4200.
Clc1ccc2c(Nc3cccc(-c4nc5ccccc5[nH]4)c3)ccnc2c1 showed a GI50 at 72 h [3] of 1000 nM and an IC50 at 72 h [4] of 20400 nM.
Compound Clc1ccc2c(N3CCN(c4ccc(-c5nc6ccccc6[nH]5)cc4)CC3)ccnc2c1 has a GI50 at 72 h [3] of over 100000 nM and an IC50 at 72 h [4] of over 100000 nM.
For O=C(NNc1ccnc2cc(Cl)ccc12)c1cc(-c2ccccc2)nc2ccccc12, the MIC [6] was 38 µM (≈ 16.1 µg/mL) and the inhibition at 250 µg/mL [7] was 99%.
In the case of Cc1ccc(CNCCCCCCNc2ccnc3cc(Cl)ccc23)c(O)c1, the IC50 (Cholinesterase [8]) is reported as 1580 nM and the IC50 (Acetylcholinesterase [9]) is reported as 260 nM.
COn1cc(CCNC(=S)NCCCCCNc2c3c(nc4ccccc24)CCCC3)c2ccccc21 gave an IC50 (Cholinesterase [10]) of 39 nM and an IC50 (Acetylcholinesterase [11]) of 70 nM.
For Clc1ccc(C2CC(c3ccc(Nc4ccnc5cc(Cl)ccc45)cc3)=NN2)cc1 (configuration not stated), the IC50 (Jurkat E6.1) was 6310 nM and the IC50 (HL-60) was 6170 nM.
Clc1ccc2c(NCCCN(CCCCN(CCCNc3ccnc4cc(Cl)ccc34)Cc3ccccc3)Cc3ccccc3)ccnc2c1 gave an IC50 [12] of 269 nM.
With CN(CCCCN(C)CCCNc1ccnc2cc(Cl)ccc12)CCCNc1ccnc2cc(Cl)ccc12 the IC50 [12] was 269 nM.
With Cc1ccc(S(=O)(=O)NCCCCCNc2c3c(nc4ccccc24)CCCC3)cc1 the IC50 (Cholinesterase [10]) was 68 nM and the IC50 (Acetylcholinesterase [13]) was 62 nM.
Compound CC(C)(C)c1ccc(CNCCNc2c3c(nc4ccccc24)CCCCC3)c(C(C)(C)C)c1O has an IC50 (Cholinesterase [10]) of 84 nM and an IC50 (Acetylcholinesterase [13]) of 1900 nM.
With COc1ccc(/C=N/NC(=O)c2ccc(Nc3ccnc4ccccc34)cc2)cc1OC the IC50 (SMMC-7721) was 9600 nM and the IC50 (HepG2) was 12600 nM.
Nc1c2c(nc3c1C(c1ccc(F)cc1)C1=C(O3)C(=O)c3ccccc3C1=O)CCCC2 (configuration not stated) gave an IC50 (Cholinesterase [14]) of 13800 nM and an IC50 (Acetylcholinesterase [15]) of 890 nM.
Compound O=C(N/N=C/c1nc2ccccc2[nH]1)c1ccc(Nc2ccnc3ccccc23)cc1 has an IC50 (HepG2) of over 80000 nM.
With CCCCCCCCOc1cc(/C=N/Nc2cc(C)nc3ccc(Cl)cc23)cc(OCCCCCCCC)c1OCCCCCCCC the MIC (Bacillus subtilis) was 25 µg/mL (≈ 36.7 µM), the MIC (Staphylococcus aureus) was 6.25 µg/mL (≈ 9.19 µM) and the MIC (Escherichia coli) was 12.5 µg/mL (≈ 18.4 µM). It also gave an MIC (Pseudomonas aeruginosa) of 6.25 µg/mL (≈ 9.19 µM).
Cc1ncsc1/C=N/NC(=O)c1ccc(Nc2ccnc3ccccc23)cc1 gave an IC50 (HepG2) of over 80000 nM.
Work on CCN(CCCC(C)Nc1ccnc2cc(Cl)ccc12)CCNC(=O)C(F)(F)C1CCN(CCOCCOC)CC1 (configuration not stated) yielded a CC50 at 48 h [16] of 5750 nM, an IC50 [17] of 1810 nM and an IC50 [18] of 2520 nM. It also gave an IC50 [19] of 24400 nM.
Work on CC(=O)n1c2ccccc2c(=O)c2c(-n3ccnc3)nc3ccc(Br)cc3c21 yielded an IC50 (A549) of 440 nM and an IC50 (MCF7) of 620 nM.
With NC(=O)N/N=C(/C=C/c1ccc(Br)cc1)c1ccc(Nc2ccnc3cc(Cl)ccc23)cc1 the MIC [20] was 1.56 µM (≈ 0.812 µg/mL).
With COc1ccc(C2CC(c3cccc(Nc4ccnc5cc(Cl)ccc45)c3)=NN2)cc1OC (configuration not stated) the IC50 (Jurkat E6.1) was 3170 nM and the IC50 (HL-60) was 940 nM.
